# Measurements reported in ChEMBL document CHEMBL3045642, “Synthesis of biologically active drimanes and homodrimanes from ()-sclareol” (Tetrahedron, 1995).
# What was measured:
# Salmonella typhimurium = test: Antibacterial activity against Salmonella enterica subsp. enterica serovar Typhimurium after 24 hr; type: functional
# HT-29 = test: Cytotoxicity against Homo sapiens (human) HT-29 cells; type: functional, cell-based
# Bacillus subtilis = test: Antibacterial activity against Bacillus subtilis CECT 397 after 24 hr; type: functional; conditions: CECT 397, 24 h
# Cryptococcus neoformans = test: Antifungal activity against Cryptococcus neoformans CECT 1075 after 48 hr; type: functional; conditions: CECT 1075, 48 h
# Spodoptera littoralis [1] = test: Antifeedant activity against Spodoptera littoralis at 10 ppm; type: functional
# P388 = test: Cytotoxicity against […] cells; type: functional, cell-based; conditions: Mus musculus
# Saccharomyces cerevisiae = test: Antifungal activity against Saccharomyces cerevisiae S3 after 48 hr; type: functional; conditions: S3, 48 h
# Spodoptera littoralis [2] = test: Antifeedant activity against Spodoptera littoralis at 100 ppm; type: functional
# Candida albicans = test: Antifungal activity against Candida albicans CECT 1394 after 48 hr; type: functional; conditions: CECT 1394, 48 h
# Enterococcus faecalis = test: Antibacterial activity against Enterococcus faecalis OGIX after 24 hr; type: functional
# SK-MEL-28 = test: Cytotoxicity against Homo sapiens (human) SK-MEL-28 cells; type: functional, cell-based
# Pseudomonas aeruginosa = test: Antibacterial activity against Pseudomonas aeruginosa after 24 hr; type: functional
# A549 = test: Cytotoxicity against Homo sapiens (human) A549 cells; type: functional, cell-based
# Proteus = test: Antibacterial activity against Proteus after 24 hr; type: functional
# Spodoptera littoralis [3] = test: Antifeedant activity against Spodoptera littoralis; type: functional, organism-based
# Staphylococcus aureus = test: Antibacterial activity against Staphylococcus aureus ATCC 8 after 24 hr; type: functional; conditions: ATCC 8, 24 h
MIC (Salmonella typhimurium) [µg/mL],MIC (Bacillus subtilis) [µg/mL],MIC (Cryptococcus neoformans) [µg/mL],MIC (Saccharomyces cerevisiae) [µg/mL],MIC (Candida albicans) [µg/mL],MIC (Enterococcus faecalis) [µg/mL],MIC (Pseudomonas aeruginosa) [µg/mL],MIC (Proteus) [µg/mL],MIC (Staphylococcus aureus) [µg/mL],SMILES,IC50 (HT-29) [µg/mL],AFI (Spodoptera littoralis [1]) [%],IC50 (P388) [µg/mL],AFI (Spodoptera littoralis [2]) [%],IC50 (SK-MEL-28) [µg/mL],IC50 (A549) [µg/mL],Activity (Spodoptera littoralis [3])
> 100,100,> 100,100,> 100,> 100,100,> 100,100,CC1(C)CCC[C@]2(C)[C@@H](CC=O)C(C=O)=CC[C@@H]12,5,-17.9,2.5,51.7,5,2.5,Dose-dependent effect
> 100,> 100,> 100,> 100,> 100,> 100,100,> 100,> 100,C=C1C(=O)C[C@H]2C(C)(C)CCC[C@]2(C)[C@H]1CC=O,2.5,-10,1.2,43.7,2.5,1.2,Dose-dependent effect
–,–,–,–,–,–,–,–,–,C=C1C(=O)C[C@H]2C(C)(C)CCC[C@]2(C)[C@H]1C=O,–,40.2,–,18.5,–,–,–
> 100,> 100,> 100,100,> 100,> 100,> 100,> 100,> 100,CC1(C)CCC[C@]2(C)[C@@H](C=O)C(C=O)=CC[C@@H]12 [POLYGODIAL],–,24.9,–,7.4,2.5,–,–
